One assay addresses T1, Cytochrome P450 1A2 (Homo sapiens, UniProt P05177).
T1 sequence (P05177 whole entry): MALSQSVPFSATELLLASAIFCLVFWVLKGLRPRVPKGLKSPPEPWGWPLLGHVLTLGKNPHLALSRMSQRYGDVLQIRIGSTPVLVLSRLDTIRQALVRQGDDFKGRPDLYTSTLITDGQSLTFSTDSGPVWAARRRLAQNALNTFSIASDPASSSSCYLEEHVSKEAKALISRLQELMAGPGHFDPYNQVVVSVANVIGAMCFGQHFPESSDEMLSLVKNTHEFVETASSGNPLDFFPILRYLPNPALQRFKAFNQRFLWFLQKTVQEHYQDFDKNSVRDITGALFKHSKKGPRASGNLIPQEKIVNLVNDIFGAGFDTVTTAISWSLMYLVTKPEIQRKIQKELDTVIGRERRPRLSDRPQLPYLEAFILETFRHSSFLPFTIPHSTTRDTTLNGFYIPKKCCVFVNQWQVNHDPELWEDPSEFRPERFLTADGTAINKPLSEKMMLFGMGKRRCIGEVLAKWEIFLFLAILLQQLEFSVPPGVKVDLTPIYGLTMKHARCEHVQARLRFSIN

The target in assay [1] is T2, Tyrosine-protein phosphatase non-receptor type 7 (Homo sapiens, UniProt P35236).
T2 sequence (P35236 whole entry): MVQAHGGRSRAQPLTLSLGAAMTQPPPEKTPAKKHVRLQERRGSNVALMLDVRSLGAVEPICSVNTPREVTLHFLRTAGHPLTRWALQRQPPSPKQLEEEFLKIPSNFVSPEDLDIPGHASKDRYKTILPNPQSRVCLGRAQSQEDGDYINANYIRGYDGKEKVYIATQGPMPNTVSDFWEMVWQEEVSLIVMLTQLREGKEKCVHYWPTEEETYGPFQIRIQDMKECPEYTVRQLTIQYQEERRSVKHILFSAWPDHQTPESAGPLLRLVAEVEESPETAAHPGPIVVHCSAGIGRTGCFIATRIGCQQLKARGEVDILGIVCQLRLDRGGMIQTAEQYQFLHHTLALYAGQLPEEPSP
Description: inhibitors of human HePTP phosphatase, […], biochemical, absorbance, leukemia target (AID 521). It counts as functional.

Assay [2] is described as follows: cytotoxicity in OV-90 ovarian cancer cells, dose response, PAX8 inhibitor project, cell-based, plate reader, dry powder, SA8 (AID 743149). It counts as functional.
Assay [3] can be described thus: HEK293 cell viability, dose response, counter-screen for EBV LMP1 inhibitor project, dry powder, set 2 (AID 624374). It counts as functional. (Counterscreens check selectivity or assay interference.)
Assay [4] can be described thus: A549 cell cytotoxicity, dose response, CellTiter-Glo luminescence, dry powder, set 17 (AID 1117284). It is filed as functional, cell-based. In general terms: Cellular ATP, detected with luciferase, serves as a proxy for viable cell number.
Assay [5] can be described thus: HEK293T cytotoxicity, dose response, cytotoxicity control for miR-122 modulator project, cell-based, inhibitor set, cherry-pick, set 2 (AID 720697). It counts as functional.
For a further assay, the target named is Paired box protein Pax-8 (Homo sapiens, UniProt Q06710). Description: inhibitors of PAX8-driven TPO luciferase reporter, dose response, RMG-I cells, cherry-pick (AID 687027).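 Further: luciferase reporter driven by Pax8 target thyroperoxidase promoter measured by SteadyGlo luminescence.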 It counts as functional, cell-based. For orientation: A reporter such as luciferase makes a cellular process visible.
Sequence of Paired box protein Pax-8 (Q06710 whole entry): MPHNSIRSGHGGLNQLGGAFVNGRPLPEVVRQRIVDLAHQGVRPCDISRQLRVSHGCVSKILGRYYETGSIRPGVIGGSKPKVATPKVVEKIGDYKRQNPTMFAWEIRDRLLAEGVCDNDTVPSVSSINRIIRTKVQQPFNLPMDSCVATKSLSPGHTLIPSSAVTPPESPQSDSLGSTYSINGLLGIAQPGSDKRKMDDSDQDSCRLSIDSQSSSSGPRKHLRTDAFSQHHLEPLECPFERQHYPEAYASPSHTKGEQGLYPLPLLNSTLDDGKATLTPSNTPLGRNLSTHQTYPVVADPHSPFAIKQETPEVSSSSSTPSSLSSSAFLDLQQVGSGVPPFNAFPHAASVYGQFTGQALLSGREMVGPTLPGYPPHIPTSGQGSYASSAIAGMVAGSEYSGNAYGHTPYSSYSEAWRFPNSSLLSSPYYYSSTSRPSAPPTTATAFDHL
The nature of assay [6]: cytotoxicity dependent on PAX8, dose response, cell-based, plate reader, dry powder (AID 743049). It is filed as functional.
Assay [7] is described as follows: PAX2 cell-based inhibition, dose response, selectivity assay for PAX8 inhibitor project, plate reader, dry powder samples (AID 743048).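 Further: HEK293 cells carrying a WT1 promoter luciferase reporter driven by expressed Pax2; potency is for inhibition of Pax2 driven reporter signal.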 It is filed as functional.
The nature of assay [8]: PAX5 activity inhibitors, dose response, selectivity assay for PAX8 inhibitor project, cell-based, plate reader, dry powder samples (AID 743047).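 Further: HEK293 cells carrying a Pax5 driven CD19 promoter luciferase reporter; potency of inhibitors that lower reporter luminescence.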 It counts as functional.
The nature of assay [9]: miR-122 activators in hepatoma reporter cells, dose response, cell-based, Huh7 psiCHECK-miR122, Renilla luciferase, cherry-picked (AID 651956).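 Further: huh7 hepatoma cells stably carrying a psiCHECK-2 miR-122 sensor plasmid; renilla luciferase signal reporting endogenous miR-122 activity after 48 h compound exposure.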 It counts as functional.
Assay [10] is described as follows: A549 cell cytotoxicity, dose response, cytotoxicity control, 24 h, CellTiter-Glo luminescence, cherry-picks (AID 1053115). It counts as functional, cell-based. Particulars: A549, 24 h.
Assay [11] is described as follows: P. falciparum ATP4 D1247Y mutant growth inhibitors, dose response, NITD609-resistant line, SYBR Green, dry powder (AID 1159571).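 Further: parasites synchronized at ring stage by sorbitol before testing.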 It is filed as functional, cell-based.
Assay [12] is described as follows: cytotoxicity in OVCAR8 ovarian cancer cells, dose response, PAX8 project, cell-based, plate reader, dry powder samples (AID 743197). Particulars: OVCAR-8. It counts as functional.
A short description of assay [13]: P. falciparum 3D7-ScDHODH growth inhibitors, dose response, SYBR Green, dry powder samples (AID 1159570).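 Further: parasite growth measured after 72 hours of compound exposure.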 It counts as functional, cell-based.
Assay [14] is described as follows: NIH:OVCAR-3 ovarian cancer cell cytotoxicity, dose response, PAX8 inhibitor project, plate reader, dry powder samples (AID 743044). It counts as functional, cell-based.
Assay [15] can be described thus: non-specific cell cytotoxicity, dose response, cytotoxicity control for PAX8 inhibitor project, plate reader, dry powder samples (AID 743021). It counts as functional, cell-based.
A short description of assay [16]: P. falciparum Dd2 growth inhibitors, dose response, SYBR Green, cherry-picked samples (AID 1159567). It is filed as functional, cell-based.
A short description of assay [17]: P. falciparum Dd2 growth inhibitors, dose response, SYBR Green, dry powder samples (AID 1159566).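 Further: potency for growth inhibition with lower SYBR green DNA signal.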 It counts as functional, cell-based.
Assay [18] can be described thus: HepG2 cell cytotoxicity, dose response, cytotoxicity control, plate reader, dry powder samples (AID 1159569).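 Further: inhibitor potency with signal falling toward the positive control level.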 It counts as functional, cell-based.
The nature of assay [19]: HepG2 cell cytotoxicity, dose response, cytotoxicity control, cherry-picked samples (AID 1159577). It is filed as functional, cell-based.
A short description of assay [20]: Dose-response inhibition of insulin secretion in a rat insulinoma line at 5 mM glucose (AID 1117331). It is filed as functional, cell-based. Particulars: INS-1E.
Assay [21] can be described thus: SNU-C1 cell viability reduction, dose response, CellTiter-Glo luminescence (AID 1117323). It counts as functional, cell-based.
The nature of assay [22]: Concentration-dependent survival of SW480 colon cancer line, luminescence detection with CellTiter-Glo, half-maximal inhibitory concentration (AID 1117338). It is filed as functional.
A short description of assay [23]: HCT116 cell viability decrease, GSK3B pretreatment – CellTiter-Glo, IC50, dose response (AID 1117339). It is filed as functional. Particulars: HCT-116.
Assay [24] in a line: CellTiter-Glo luminescent dose response of DLD-1 viability loss (AID 1117352). It counts as functional.
A short description of assay [25]: cytotoxicity toward HCT116 cells – cell-based, CellTiter-Glo luminescence, IC50, dose response (AID 1117332). Particulars: HCT-116. It counts as functional.
Assay [26] in a line: RKO cell viability reduction, dose response, CellTiter-Glo luminescence (AID 1117322). It is filed as functional.
Assay [27] in a line: Glucagon-like peptide 1 release potency, NCI-H716 cell line, dose-response, half-maximal inhibitory concentration (AID 1117344). It counts as functional, cell-based.
Assay [28] is described as follows: cytotoxicity toward Colo320 cells – cell-based, CellTiter-Glo luminescence, IC50, dose response (AID 1117334). It is filed as functional. Particulars: COLO 320.
The nature of assay [29]: cytotoxicity toward HT-29 cells – cell-based, CellTiter-Glo luminescence, IC50, dose response (AID 1117330). It is filed as functional.
Assay [30] is described as follows: half-maximal inhibitory concentration for glucagon-like peptide-1 release, STC-1 cell line, dose-response (AID 1117345). It is filed as functional, cell-based.
A short description of assay [31]: HeLa 2N DNA content increase, dose response, cell-based, IC50 (AID 1117349). It is filed as functional.
The nature of assay [32]: HeLa 4N DNA content increase, dose response, cell-based, IC50 (AID 1117351). It counts as functional.
Assay [33] has as its target T3, Low molecular weight phosphotyrosine protein phosphatase (Homo sapiens, UniProt P24666). Description: LMPTP phosphatase inhibitors, colorimetric pNPP readout, dose response, orthogonal assay, biochemical, absorbance, pNPP substrate, LMPTP-A isoform, set 2 (AID 743308). It is filed as functional.
Assay [34] deals with T3, Low molecular weight phosphotyrosine protein phosphatase. The assay is described as follows: LMPTP phosphatase inhibitors, dose response, biochemical, OMFP substrate, fluorescence intensity, set 2 (AID 743307). It counts as functional.

The source made the active and inactive calls.

T3 sequence (P24666 whole entry, canonical isoform): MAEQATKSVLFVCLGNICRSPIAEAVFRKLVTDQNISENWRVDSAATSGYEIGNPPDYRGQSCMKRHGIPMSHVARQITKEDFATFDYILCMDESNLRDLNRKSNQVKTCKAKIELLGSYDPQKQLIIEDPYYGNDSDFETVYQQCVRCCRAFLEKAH

Broadly, the AC50 is the concentration giving half of the maximal activity seen. One may read the IC50 as the concentration at which inhibition is half-maximal. Consider `Cc1c(NC(=O)CN2C(=O)C3C4C=CC(C4)C3C2=O)c(=O)n(-c2ccccc2)n1C` (configuration not stated), for which, at Cytochrome P450 1A2, the AC50 is 39.8 µM (inconclusive). For the same compound, in assay [1], the half-inhibitory concentration (IC50) is given as > 100 µM (not active).

On to `C[C@@H]1CN([C@@H](C)CO)S(=O)(=O)c2ccc(C#C[C@@H](C)O)cc2O[C@H]1CN(C)Cc1ccc(-c2ccccc2)cc1`, for which the AC50 in assay [2] is 17.7 µM (active); in assay [4], 46.1 µM (active); in assay [5], 8.22 µM (active); on Paired box protein Pax-8, 6.61 µM (active); in assay [6], > 70 µM (inactive); in assay [7] it was > 70 µM (inactive). The figures for the half-maximal activity concentration (AC50) in [8], in assay [9] and in assay [10] were 41.3 µM (active), 20.3 µM (active) and 53.4 µM (active), respectively. This compound gave an AbsAC35 in [3] of 211.64 µM.

For the compound `Cc1cccc(-c2ccc([C@H]3[C@H]4CN(S(=O)(=O)c5cccc(C)c5)CCCCN4[C@H]3CO)cc2)c1`, the half-maximal activity concentration (AC50) in assay [11] is 1.42 µM (active); in assay [12], 44.6 µM (active); at Paired box protein Pax-8 it was 7.45 µM (active); in [13] it was 2.07 µM (active); in [14], 43.5 µM (active); in assay [15], 67.1 µM (active). Further, the concentration at half-maximal activity (AC50) in [16] was 2.62 µM (active); in [17] it was 1.19 µM (active); in [18] it was > 100 µM (inactive); in assay [19], > 39 µM (inactive).

For `CN1CCCC(CC2c3ccccc3Sc3ccccc32)C1` (configuration not stated), the IC50 was > 11.1 µM (inactive) in [20]; 15.1 µM (inactive) in assay [21]; 4.7 µM (active) in assay [22]; 8.68 µM (inactive) in [23]; > 20 µM (inactive) in assay [24]; > 20 µM (inactive) in [25]. Further, the 50% inhibitory concentration (IC50) is 3.49 µM (active) in assay [26]; > 40 µM (inactive) in assay [27]; > 20 µM (inactive) in [28]; 6.43 µM (inactive) in assay [29]; > 40 µM (inactive) in [30]; > 10 µM (inactive) in assay [31]. Moreover, in assay [32], the IC50 was > 10 µM (inactive).

As for `Fc1ccc(-c2cc(NCCCN3CCCCC3)c3ccccc3n2)cc1`, the results for the 50% inhibitory concentration (IC50) in assay [33] and in assay [34] were 3.27 µM (active) and 1.4 µM (active), respectively.

For the origin of these results see ChEMBL document CHEMBL1201862, “PubChem BioAssay data set” (2004).
